The test system of experiment [1] is Enterococcus faecalis. The experiment is described as follows: Antibacterial activity against Enterococcus faecalis by broth dilution method. Type of experiment: functional. (Dilution methods test growth across graded concentrations, often in twofold steps.)
Experiment [2] deals with Staphylococcus epidermidis. The experiment is described as follows: Antibacterial activity against Staphylococcus epidermidis by broth dilution method. The experiment is classed as functional.
The test system of experiment [3] is Staphylococcus aureus. In words: Antibacterial activity against methicillin-resistant Staphylococcus aureus by broth dilution method. Type of experiment: functional.
Experiment [4] concerns Escherichia coli. The experiment is described as follows: Antibacterial activity against Escherichia coli by broth dilution method. Type of experiment: functional.
Experiment [5] relates to Staphylococcus aureus. In words: Antibacterial activity against Staphylococcus aureus by broth dilution method. Type of experiment: functional.
For experiment [6], the system named is Staphylococcus aureus. The experiment is described as follows: Bacteriostatic activity against Staphylococcus aureus assessed as log reduction in bacterial growth at 4 times MIC measured after 24 hrs by time kill assay. Type of experiment: functional.
The subject of experiment [7] is Staphylococcus aureus. The experiment is described as follows: Bacteriostatic activity against Staphylococcus aureus assessed as reduction in bacterial growth at 1 times MIC measured after 24 hrs by time kill assay. Type of experiment: functional, organism-based.
Experiment [8] relates to Staphylococcus aureus. The experiment is described as follows: Potency index, ratio of tiamulin MIC to test compound MIC for antibacterial activity methicillin-resistant Staphylococcus aureus by broth dilution method. The experiment is classed as functional.
Experiment [9] deals with Staphylococcus aureus. In words: Bacteriostatic activity against methicillin-resistant Staphylococcus aureus assessed as reduction in bacterial growth at 1 times MIC measured after 24 hrs by time kill assay. Type of experiment: functional, organism-based.
Experiment [10] concerns Staphylococcus aureus. The experiment is described as follows: Bacteriostatic activity against Staphylococcus aureus assessed as log reduction in viable cell count at 6 times MIC measured after 24 hrs by time kill assay. Type of experiment: functional.
The test system of experiment [11] is Enterococcus faecalis. The experiment is described as follows: Potency index, ratio of tiamulin MIC to test compound MIC for antibacterial activity Enterococcus faecalis by broth dilution method. Type of experiment: functional.
Experiment [12] relates to Staphylococcus aureus. The experiment is described as follows: Potency index, ratio of tiamulin MIC to test compound MIC for antibacterial activity Staphylococcus aureus by broth dilution method. Type of experiment: functional.
The subject of experiment [13] is Staphylococcus epidermidis. The experiment is described as follows: Bacteriostatic activity against Staphylococcus epidermidis assessed as reduction in bacterial growth at 1 times MIC measured after 24 hrs by time kill assay. Type of experiment: functional, organism-based.
Experiment [14] deals with Staphylococcus aureus. The experiment is described as follows: Bacteriostatic activity against Staphylococcus aureus assessed as log reduction in bacterial growth at 2 times MIC measured after 24 hrs by time kill assay. The experiment is classed as functional.
For experiment [15], the system named is Staphylococcus aureus. In words: Bacteriostatic activity against methicillin-resistant Staphylococcus aureus assessed as log reduction in viable cell count at 6 times MIC measured after 24 hrs by time kill assay. Type of experiment: functional.
The subject of experiment [16] is Staphylococcus epidermidis. The experiment is described as follows: Potency index, ratio of tiamulin MIC to test compound MIC for antibacterial activity Staphylococcus epidermidis by broth dilution method. The experiment is classed as functional.
Experiment [17] has as its system Staphylococcus epidermidis. In words: Bacteriostatic activity against Staphylococcus epidermidis assessed as log reduction in bacterial growth at 6 times MIC measured after 24 hrs by time kill assay. Type of experiment: functional.

Molecules are shown by their SMILES. Converted amounts (≈) assume the structure as drawn. The source made the active and inactive calls. No cut-off for these calls is given here.

In general, MIC refers to the lowest concentration that inhibits growth of the organism. Low values mean inhibition by little substance, high ones a need for much substance.

Regarding `C=C[C@]1(C)C[C@@H](OC(=O)CSC(C)(C)CNC(=O)Cn2cc(Cc3ccc(OC)cc3)nn2)[C@]2(C)[C@H](C)CC[C@]3(CCC(=O)[C@H]32)[C@@H](C)[C@@H]1O`, the MIC in [1] is 1 µg/mL (≈ 1.44 µM); in experiment [2], 0.5 µg/mL (≈ 0.719 µM); in experiment [3], over 64 µg/mL; in [4], over 64 µg/mL; in experiment [5], 0.5 µg/mL (≈ 0.719 µM).
Turning to `C=C[C@]1(C)C[C@@H](OC(=O)CSC(C)(C)CNC(=O)Cn2cc(COc3ccc([N+](=O)[O-])cc3)nn2)[C@]2(C)[C@H](C)CC[C@]3(CCC(=O)[C@H]32)[C@@H](C)[C@@H]1O`, the MIC in [1] was 64 µg/mL (≈ 88.2 µM); in [2] it was 1 µg/mL (≈ 1.38 µM); in experiment [3] it was 4 µg/mL (≈ 5.51 µM); in experiment [4], over 64 µg/mL; in experiment [5] it was 4 µg/mL (≈ 5.51 µM).
In the case of `C=C[C@]1(C)C[C@@H](OC(=O)CSC(C)(C)CNC(=O)Cn2cc(COc3ccc([N+](=O)[O-])cc3[N+](=O)[O-])nn2)[C@]2(C)[C@H](C)CC[C@]3(CCC(=O)[C@H]32)[C@@H](C)[C@@H]1O`, the MIC in experiment [1] is 0.25 µg/mL (≈ 0.324 µM); in experiment [2], 0.062 µg/mL (≈ 0.0804 µM); in experiment [3], 0.062 µg/mL (≈ 0.0804 µM); in experiment [4], over 64 µg/mL; in experiment [5] it was 0.062 µg/mL (≈ 0.0804 µM). Besides, the “log(activity)” value in [6] worked out at 3.38; in [10], 4.1; in experiment [14], 1.98; in [15] it was 4.3. Also, the result in experiment [7], in experiment [9] and in experiment [13] was Active. The Ratio is given as 4 in experiment [8], 128 in experiment [11], 64 in [12] and 8 in [16].
In the case of `C=C[C@]1(C)C[C@@H](OC(=O)CSC(C)(C)CNC(=O)Cn2cc(CNc3ccc(OCCCCCC)cc3)nn2)[C@]2(C)[C@H](C)CC[C@]3(CCC(=O)[C@H]32)[C@@H](C)[C@@H]1O`, the MIC in [1] is 0.062 µg/mL (≈ 0.0795 µM); in experiment [2], 0.5 µg/mL (≈ 0.641 µM); in [3] it was 16 µg/mL (≈ 20.5 µM); in experiment [4], over 64 µg/mL; in [5], over 64 µg/mL.
As to `C=C[C@]1(C)C[C@@H](OC(=O)CSC(C)(C)CNC(=O)Cn2cc(CNc3ccc(OC)cc3)nn2)[C@]2(C)[C@H](C)CC[C@]3(CCC(=O)[C@H]32)[C@@H](C)[C@@H]1O`, the MIC in experiment [1] is 64 µg/mL (≈ 90.1 µM); in experiment [2], 2 µg/mL (≈ 2.82 µM); in [3] it was 4 µg/mL (≈ 5.63 µM); in experiment [4], over 64 µg/mL; in experiment [5] it was 4 µg/mL (≈ 5.63 µM).
Regarding `C=C[C@]1(C)C[C@@H](OC(=O)CSC(C)(C)CNC(=O)Cn2cc(Cc3cccnc3)nn2)[C@]2(C)[C@H](C)CC[C@]3(CCC(=O)[C@H]32)[C@@H](C)[C@@H]1O`, the MIC is 0.062 µg/mL (≈ 0.0931 µM) in experiment [1]; 0.25 µg/mL (≈ 0.375 µM) in experiment [2]; 2 µg/mL (≈ 3 µM) in experiment [3]; over 64 µg/mL in experiment [4]; 16 µg/mL (≈ 24 µM) in [5].
Turning to `C=C[C@]1(C)C[C@@H](OC(=O)CSC(C)(C)CNC(=O)Cn2cc(COc3ccc(C)cc3)nn2)[C@]2(C)[C@H](C)CC[C@]3(CCC(=O)[C@H]32)[C@@H](C)[C@@H]1O`, the MIC was 16 µg/mL (≈ 23 µM) in experiment [1]; 0.062 µg/mL (≈ 0.0892 µM) in [2]; 0.062 µg/mL (≈ 0.0892 µM) in [3]; over 64 µg/mL in experiment [4]; over 64 µg/mL in [5].
Take `C=C[C@]1(C)C[C@@H](OC(=O)CSC(C)(C)CNC(=O)Cn2cc(CNc3ccc(C)cc3)nn2)[C@]2(C)[C@H](C)CC[C@]3(CCC(=O)[C@H]32)[C@@H](C)[C@@H]1O`: the minimum inhibitory concentration (MIC) in [1] is 64 µg/mL (≈ 92.2 µM); in experiment [2] it was 2 µg/mL (≈ 2.88 µM); in [3], 16 µg/mL (≈ 23.1 µM); in [4], over 64 µg/mL; in [5], 16 µg/mL (≈ 23.1 µM).
With `C=C[C@]1(C)C[C@@H](OC(=O)CSC(C)(C)CNC(=O)Cn2cc(CNc3ccc(CCCCCC)cc3)nn2)[C@]2(C)[C@H](C)CC[C@]3(CCC(=O)[C@H]32)[C@@H](C)[C@@H]1O`, the MIC in experiment [1] is over 64 µg/mL; in [2], 2 µg/mL (≈ 2.62 µM); in experiment [3], 8 µg/mL (≈ 10.5 µM); in experiment [4], over 64 µg/mL; in [5], 32 µg/mL (≈ 41.9 µM).
Take `C=C[C@]1(C)C[C@@H](OC(=O)CSC(C)(C)CNC(=O)Cn2cc(CNc3ccc(Cl)cc3)nn2)[C@]2(C)[C@H](C)CC[C@]3(CCC(=O)[C@H]32)[C@@H](C)[C@@H]1O`: the MIC in [1] was 64 µg/mL (≈ 89.6 µM); in [2], 8 µg/mL (≈ 11.2 µM); in [3], 8 µg/mL (≈ 11.2 µM); in [4], over 64 µg/mL; in [5], 2 µg/mL (≈ 2.8 µM).
Consider `C=C[C@]1(C)C[C@@H](OC(=O)CSC(C)(C)CNC(=O)Cn2cc(Cc3cccc(N)c3)nn2)[C@]2(C)[C@H](C)CC[C@]3(CCC(=O)[C@H]32)[C@@H](C)[C@@H]1O`, for which the MIC in experiment [1] was over 64 µg/mL; in [2], 0.062 µg/mL (≈ 0.0912 µM); in experiment [3], 0.062 µg/mL (≈ 0.0912 µM); in experiment [4] it was over 64 µg/mL; in experiment [5], over 64 µg/mL. Moreover, the result in experiment [7], in experiment [9] and in experiment [13] was Active. The “log(activity)” value in experiment [10] was determined as 4.1; in experiment [15] it was 4.3.
`C=C[C@]1(C)C[C@@H](OC(=O)CSC(C)(C)CNC(=O)Cn2cc(CNc3ccc([N+](=O)[O-])cc3)nn2)[C@]2(C)[C@H](C)CC[C@]3(CCC(=O)[C@H]32)[C@@H](C)[C@@H]1O`: the MIC was 2 µg/mL (≈ 2.76 µM) in experiment [1]; 0.125 µg/mL (≈ 0.172 µM) in [2]; 0.25 µg/mL (≈ 0.345 µM) in experiment [3]; over 64 µg/mL in experiment [4]; 64 µg/mL (≈ 88.3 µM) in [5]. Further, the outcome in [7], in experiment [9] and in experiment [13] was Active. In [17], the “log(activity)” value stood at 4.4.
For `C=C[C@]1(C)C[C@@H](OC(=O)CSC(C)(C)CNC(=O)Cn2cc(COc3ccccc3)nn2)[C@]2(C)[C@H](C)CC[C@]3(CCC(=O)[C@H]32)[C@@H](C)[C@@H]1O`, the minimum inhibitory concentration (MIC) in experiment [1] is 16 µg/mL (≈ 23.5 µM); in experiment [2], 8 µg/mL (≈ 11.7 µM); in experiment [3] it was 8 µg/mL (≈ 11.7 µM); in experiment [4] it was over 64 µg/mL; in experiment [5] it was 64 µg/mL (≈ 94 µM).
For the compound `C=C[C@]1(C)C[C@@H](OC(=O)CSC(C)(C)CNC(=O)Cn2cc(CNc3ccc(Br)cc3)nn2)[C@]2(C)[C@H](C)CC[C@]3(CCC(=O)[C@H]32)[C@@H](C)[C@@H]1O`, the MIC was over 64 µg/mL in [1]; 16 µg/mL (≈ 21.1 µM) in experiment [2]; 64 µg/mL (≈ 84.3 µM) in experiment [3]; over 64 µg/mL in experiment [4]; over 64 µg/mL in experiment [5].
With `C=C[C@]1(C)C[C@@H](OC(=O)CSC(C)(C)CNC(=O)Cn2cc(CC3CC3)nn2)[C@]2(C)[C@H](C)CC[C@]3(CCC(=O)[C@H]32)[C@@H](C)[C@@H]1O`, the MIC is 64 µg/mL (≈ 102 µM) in [1]; 0.5 µg/mL (≈ 0.795 µM) in [2]; 8 µg/mL (≈ 12.7 µM) in experiment [3]; over 64 µg/mL in experiment [4]; 4 µg/mL (≈ 6.36 µM) in experiment [5].
For `C=C[C@]1(C)C[C@@H](OC(=O)CSC(C)(C)CNC(=O)Cn2cc(CNc3ccc(CCC)cc3)nn2)[C@]2(C)[C@H](C)CC[C@]3(CCC(=O)[C@H]32)[C@@H](C)[C@@H]1O`, the MIC in experiment [1] was over 64 µg/mL; in [2], 16 µg/mL (≈ 22.2 µM); in [3], 4 µg/mL (≈ 5.54 µM); in [4] it was over 64 µg/mL; in experiment [5], 32 µg/mL (≈ 44.3 µM).
As for `C=C[C@]1(C)C[C@@H](OC(=O)CSCCN(CC)CC)[C@]2(C)[C@H](C)CC[C@]3(CCC(=O)[C@H]32)[C@@H](C)[C@@H]1O` [TIAMULIN], the MIC is 32 µg/mL (≈ 64.8 µM) in experiment [1]; 0.5 µg/mL (≈ 1.01 µM) in [2]; 0.25 µg/mL (≈ 0.506 µM) in experiment [3]; over 64 µg/mL in [4]; 4 µg/mL (≈ 8.1 µM) in [5].
Consider `C=C[C@]1(C)C[C@@H](OC(=O)CSC(C)(C)CNC(=O)Cn2cc(Cc3ccccc3)nn2)[C@]2(C)[C@H](C)CC[C@]3(CCC(=O)[C@H]32)[C@@H](C)[C@@H]1O`, for which the MIC in [1] was 64 µg/mL (≈ 96.3 µM); in [2], 4 µg/mL (≈ 6.02 µM); in experiment [3], 4 µg/mL (≈ 6.02 µM); in experiment [4], over 64 µg/mL; in experiment [5] it was 16 µg/mL (≈ 24.1 µM).

Source of the values: ChEMBL document CHEMBL5576101, “Discovery of 1,2,3-triazole-based pleuromutilin derivatives as potent gram-positive antibacterial agents” (2024).
